Tested on: D2.mdx mice
Experiment: Seven-day GKT831 treatment of six-month-old D2.mdx mice (apoptosis, gene expression)
Format: in vivo, mouse
Details: gastrocnemius, 60 mg/kg, seven days, vs vehicle
Description: Mice were housed 3-5 mice per cage, randomly assigned into groups, provided ad libitum access to food (NIH-31 Open formulation diet; Envigo #7917), water, and enrichment, and maintained on a 12-hour light/dark system. Once daily (Q.D.) GKT831 (purchased from Ambeed, Inc.) was administered orally (P.O.) suspended at a concentration of 36 mg/mL in a vehicle consisting of sterilized sunflower seed oil (Sigma-Aldrich). […] The GKT831 treatment group received a dose of 60 mg/kg (21). All animal procedures were approved and conducted in accordance with the University of Florida IACUC and reported using the recommendations of ARRIVE guidelines.
OCT-embedded murine tissues were cryo-sectioned at […] and fixed in 4% PFA. Immunofluorescent analysis was performed using anti-NOX4 (1:2000; Abcam #13303), anti-laminin (1:800; Novus #MAB2549), anti-vimentin (1:1000; Novus #MB300), anti-PDGFRα (1:500; R&D Systems #AF1062), anti-SMA (1:1000; Abcam #ab5694), anti-periostin (1:500, Abcam #ab14041), anti-Pax7 (1:100; R&D Systems #MAB1675), anti-Myosin X (1:800; Sigma #HPA024223) and anti-active caspase-3 (1:1000; Cell Signaling 49661) primary antibodies. Mouse tissue sections incubated with mouse monoclonal antibodies were first incubated with a solution containing donkey anti-mouse IgG AffiniPure Fab fragments (1:25 in PBS; Jackson ImmunoResearch #715-007-003) for one hour prior to blocking. Following overnight incubation in primary antibody, sections were rinsed with PBS and incubated with the appropriate species-specific secondary antibody (1:500 dilution). Lipofuscin-dependent autofluorescence was quenched using a 0.1% solution of Sudan black B following secondary antibody incubation. Slides were cover-slipped using Prolong Gold mounting reagent (Invitrogen). Images were acquired using a Leica SP8 confocal microscope. All comparative images were stained simultaneously and acquired using identical settings. Human samples were obtained through the National Disease Research Interchange (Philadelphia, PA).
Gene expression analysis was conducted as previously described (17) using the following mouse-specific primers: Col1a2 (forward) 5′-ATGGTGGCAGCCAGTTTGAA-3′ (SEQ ID NO: 1) and (reverse) 5′-TCCAGGTACGCAATGCTGTT-3′ (SEQ ID NO: 2); Acta2 (forward) 5′-CTACTGCCGAGCGTGAGATTGTCC-3′ (SEQ ID NO: 3) and (reverse) 5′-GAGGGCCCAGCTTCGTCGTATT-3′ (SEQ ID NO: 4); 116 (forward) 5′-AACCACGGCCTTCCCTACTTC-3′ (SEQ ID NO: 5) and (reverse) 5′-TCTGGCTTTGTCTTTCTTGTTATC-3′ (SEQ ID NO: 6); Tgfb1 (forward) 5′-GACTCTCCACCTGCAAGACCAT-3′ (SEQ ID NO: 7) and (reverse) 5′-GGGACTGGCGAGCCTTAGTT-3′ (SEQ ID NO: 8); Gapdh (forward) 5′-AGCAGGCATCTGAGGGCCCA-3′ (SEQ ID NO: 9) and (reverse) 5′-TGTTGGGGGCCGAGTTGGGA-3′ (SEQ ID NO: 10). Relative gene expression quantification was performed using the ΔΔCt method with Gapdh as the normalization gene.
Because the presumed mechanism attributed to myofibroblast clearance has been that of promoting their apoptosis (20), a short-term study was performed to investigate acute changes in muscle that result from NOX4 inhibition.

CN(C)c1cccc(-c2c3c(=O)n(-c4ccccc4Cl)[nH]c3cc(=O)n2C)c1 [FTX1620, Setanaxib]
PDGFRα+ cells positive for active Caspase-3: significantly more
Acta2 expression (real-time PCR): decreased expression
Col1a2 expression (real-time PCR): decreased expression
Il6 expression (real-time PCR): decreased expression
Tgfb1 expression (real-time PCR): decreased expression
